One block for each compound: values may come before it.
Columns and labels:
[1] = target: human GOAT (Homo sapiens (Human), UniProt Q96T53); test: In vitro cell free human GOAT enzymatic assay; type: biochemical; conditions: cell free human GOAT enzyme, ELISA readout of acyl-ghrelin
Method: Human GOAT gene (Accession number: NM_001100916) is subcloned to pAN51 baculoviral expression vector. Baculovirus stock is prepared following the Bac-to-Bac Protocol provided by the vendor, Invitrogen, California, USA. Five mililiters of human GOAT baculoviral stock are added to 500 mL Sf9 cells in HyQ SFX-Insect™ media (HyClone catalog number SH30278.02) at the density of 1×10^6 cells per milliliter in a 2 L Erlenmeyer flask. The flask with human GOAT gene infected Sf9 cells is put on a plate shaker at 120 rpm at 28° C. for 48 h. After 48 h incubation, cells are centrifuged at 1,000×g for 10 min at 4° C. The cell pellets are collected and stored at −80° C. in a freezer until ready for further processing.
Preparation of Microsomal Membrane of GOAT Enzyme for the Enzymatic Assay:
One gram cell pellets are suspended in 9 mL chilled homogenization buffer (50 mM Tris-HCl, 250 mM sucrose, adjusted to pH 7.5, and sterile filtered through 0.2 μm Millipore filter). The cell suspension is transferred to a Dounce glass homogenizer. Cell pellets are homogenized with 40 strokes on ice. The homogenate is centrifuged at 3,000 rpm in a Beckman swing bucket rotor at 4° C. for 10 min to remove unbroken cells. The supernatant is collected and centrifuged at 40,000×g for 1 h at 4° C. The resulting membrane pellet is suspended in the homogenization buffer using a Dounce glass homogenizer and stored at −20° C. in the freezer for the assay. For long term storage of the human GOAT enzyme membrane preparation, the suspended membrane is stored in a −80° C. freezer.
Human GOAT Enzymatic Assay Protocol:
Prepare test compounds in DMSO to make up a 0.2 mM stock solution. Serially dilute the stock solution in DMSO for ten concentrations with final compound concentrations ranging from 10 μM to 0.5 nM in a 96-well round-bottom plate. Prepare enzyme and substrate solutions in assay buffer (0.02% TWEEN™-20 in 50 mM Tris, pH 7.5 containing 250 mM sucrose, 1 mg/mL BSA and 10 mM EDTA). Add diluted compound (1 μL) to each well of row A to N of a corresponding low protein binding 384 well plate. […] Incubate the mixture for 1 h at RT on a gently rotating oscillator. Add 4 M guanidine hydrochloride (20 μL) to all wells, mix, and incubate for 3 h to stop the reaction.
Aspirate the blocking buffer from ELISA plate and add blocking buffer (23 μL) to columns 1-24, rows A-N. Reserve rows O and P for the acylghrelin standard curve. Add the reaction mixture (2 μL) to the ELISA plates. […] Incubate the reaction mixture or biotin-labeled AG standard in the ELISA plate overnight at 4° C. The following day, wash the plate 3× with wash buffer (0.1% TWEEN™-20/PBS, 100 μL per well in each wash cycle). […] Wash the plate 3× with the wash buffer, similarly to the previous step. Add Protein G-HRP (25 μL) (Southern Biotech) diluted 3,000× in blocking buffer and incubate 1 h at RT. Wash the late 3× with wash buffer, as in the previous steps. Add TMB reagent (25 μL) (Kirkegaard & Perry Laboratories, Inc.) to each well and let develop for 20 min and stop with 1 M phosphoric acid (25 μL per well). Read plates at 450 nm using an ENVISION® Multilabel plate reader. AG levels are calculated versus a fitted standard curve and percent inhibition calculated.

[2] = target: GOAT enzyme (Mus musculus (Mouse), UniProt P0C7A3); test: In vivo dose dependent 3 day BID study for GOAT inhibitor (plasma AG, UAG by ELISA); parameters: species or system male C57BL/6 mice; conditions: mice; for decrease of plasma AG / increase of UAG / reduction in AG to total ghrelin ratio: 3 days; for decrease of plasma AG / increase of UAG: vs vehicle; for reduction in AG to total ghrelin ratio: vs vehicle-treated control animals; for AG (% of control) / AG/Total-ghrelin (% of vehicle control) / UAG (% of vehicle control): plasma
Method: Comparing the change in the ratio of AG to total ghrelin in the compound treated group and that of the vehicle treated group reflects the degree of GOAT enzyme inhibition in vivo, due to the dynamic processing of UAG to AG by the GOAT enzyme. In the in vivo pharmacodynamic studies herein, the levels of AG and UAG in plasma and stomach in the vehicle and compound treated groups are measured by ELISA specifically to these two analytes. The total ghrelin level of each sample is computed as the sum of AG and UAG by these ELISA measurements. The ratio of AG to total ghrelin is defined by the level of AG in each sample divided by the level of total ghrelin in the same sample. The levels of AG, UAG and ratio of AG to total ghrelin in the vehicle treated group is computed and set as 100%. The relative change of these parameters in the compound treated group is then computed to determine the effectiveness of the test compound.
Purchase male C57BL/6 mice from Harlan (Indianapolis, Ind.) at 9 weeks of age. House the mice individually in a temperature-controlled (24° C.) facility with a 12 h light/dark cycle (lights on 2200 h), and allow free access to a standard rodent chow (diet 2014, Harlan) and water. Typically, use the mice when they are 10-13 weeks of age at the time of the study. On day 0 of the experiment, randomize the mice into treatment groups (N=7/group) so each group has similar mean body weights. On day 1 and day 2, treat the animals with vehicle (1% hydroxyethylcellulose, 0.25% TWEEN™ 80, 0.05% antifoam) or test compound prepared in the vehicle as suspension at various dosages by oral gavage at 7 am and 7 pm. On day 3, fast the animals, move them into clean cages and dose with vehicle or the test compound again at 8 am by oral gavage. That same day at 1 pm, sacrifice the animals by decapitation to collect blood. For details of blood collection and plasma treatments see Blood collection and Extraction of Ghrelin from Plasma section below.
Collect approximately 600 μL blood into a pre-weighed EDTA tube containing 600 μL (defined as Vpreservative) freshly-prepared preservative (4 mM PEFABLOC® [4-(2-aminoethyl) benzenesulfonyl fluoride hydrochloride], 72 mM NaCl, 58 mM NaF, 0.032 N hydrochloric acid, pH 3.0) and mix immediately. Weigh the tube again and keep on ice. To accurately determine the exact blood volume of each sample using this blood collection procedure, the weight of the blood for each mouse is computed using the following equation: Weight of Blood=(Weight of the tube containing Blood+preservative)−(Weight of the tube containing preservative) Blood volume(Vblood)=(Weight of blood)/1.06
Within 15 minutes after the blood collection, samples are centrifuged at 5000 rpm at 4° C. for 8 min. Remove plasma (650 μL) to a 5 mL glass tube containing 1 N hydrochloric acid (65 μL), mix and keep on ice.
AG and UAG are extracted from plasma using SEP-PAK® C18 column to remove interference prior to performing the ELISA. The solid phase extraction of AG and UAG peptides by SEP-PAK® C18 columns can be performed on a vacuum manifold (Waters Corp) or using a peristaltic pump. The sample SEP-PAK® column extraction procedure is independently applied to the plasma sample obtained from each individual mouse. The general extraction protocol is described as follows.
All solutions used for the entire protocol of the SEP-PAK® column extraction should be at ice cold condition. Wet SEP-PAK®_columns (WAT054960, Waters Corp, Milford Mass.) with 99.9% ACN/0.1% TFA (1 mL of solution of 100 mL ACN/0.1 mL TFA). […] Once liquid is removed from the column, stop the pressure. Equilibrate the columns with 3% ACN/0.1% TFA (1 mL of 97 mL water, 3 mL ACN, 0.1 mL TFA). […] Dilute approximately 650 μL acidified plasma (defined as Vplasma added to column) to 1.4 mL ice cold 0.1% TFA. Load all diluted acidified plasma from the previous step onto the columns. […]

human GOAT, sequence (Q96T53 whole entry): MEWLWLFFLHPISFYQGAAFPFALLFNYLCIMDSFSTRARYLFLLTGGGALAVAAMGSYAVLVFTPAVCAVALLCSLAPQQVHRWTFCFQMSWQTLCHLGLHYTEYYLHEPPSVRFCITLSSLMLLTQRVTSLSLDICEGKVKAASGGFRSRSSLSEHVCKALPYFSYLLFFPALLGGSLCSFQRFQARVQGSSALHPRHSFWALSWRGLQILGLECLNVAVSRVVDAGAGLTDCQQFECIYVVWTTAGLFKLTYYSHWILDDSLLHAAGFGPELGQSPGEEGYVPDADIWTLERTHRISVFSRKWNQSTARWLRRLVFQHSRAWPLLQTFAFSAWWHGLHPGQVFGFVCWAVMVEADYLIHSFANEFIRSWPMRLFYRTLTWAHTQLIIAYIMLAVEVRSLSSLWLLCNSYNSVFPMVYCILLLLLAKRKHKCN
GOAT enzyme, sequence (P0C7A3 whole entry): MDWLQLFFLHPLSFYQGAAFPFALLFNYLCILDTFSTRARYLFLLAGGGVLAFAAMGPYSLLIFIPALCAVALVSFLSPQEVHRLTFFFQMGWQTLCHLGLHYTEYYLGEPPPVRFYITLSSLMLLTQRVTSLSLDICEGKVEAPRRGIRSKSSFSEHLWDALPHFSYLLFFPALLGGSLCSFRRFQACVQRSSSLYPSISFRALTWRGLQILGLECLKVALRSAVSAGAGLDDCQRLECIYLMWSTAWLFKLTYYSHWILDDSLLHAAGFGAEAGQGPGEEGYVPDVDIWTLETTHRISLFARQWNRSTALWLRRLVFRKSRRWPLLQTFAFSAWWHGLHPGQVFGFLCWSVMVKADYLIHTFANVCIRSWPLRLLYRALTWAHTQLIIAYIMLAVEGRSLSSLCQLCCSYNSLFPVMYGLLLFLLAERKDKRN

Structure (SMILES): Cc1nc(N)c(CCC2CCN(C(=O)[C@H](C)NC(=O)c3cnc(C)s3)CC2)c(Cl)n1 [Example 42, N-[(1S)-2-[4-[2-(4-Amino-6-chloro-2-methyl-pyrimidin-5-yl)ethyl]-1-piperidyl]-1-methyl-2-oxo-ethyl]-2-methyl-thiazole-5-carboxamide]
IC50 [1]: 96.4 ± 28.3 nM | decrease of plasma AG ([2]; 0.3 mg/kg): 51% | increase of UAG ([2]; 0.3 mg/kg): 1.61 fold | reduction in AG to total ghrelin ratio ([2]; 0.3 mg/kg): 61% | decrease of plasma AG ([2]; 1 mg/kg): 57% | increase of UAG ([2]; 1 mg/kg): 2.04 fold | reduction in AG to total ghrelin ratio ([2]; 1 mg/kg): 73% | decrease of plasma AG ([2]; 3 mg/kg): 70% | increase of UAG ([2]; 3 mg/kg): 2.00 fold | reduction in AG to total ghrelin ratio ([2]; 3 mg/kg): 81% | AG (% of control) ([2]; 0.3 mg/kg oral BID 3 days): 49 ± 7 (n = 7) % of control | AG/Total-ghrelin (% of vehicle control) ([2]; 0.3 mg/kg oral BID 3 days): 39 ± 2 (n = 7) % of vehicle control | UAG (% of vehicle control) ([2]; 0.3 mg/kg oral BID 3 days): 161 ± 24 (n = 7) % of vehicle control | AG (% of control) ([2]; 1 mg/kg oral BID 3 days): 43 ± 6 (n = 7) % of control | AG/Total-ghrelin (% of vehicle control) ([2]; 1 mg/kg oral BID 3 days): 27 ± 1 (n = 7) % of vehicle control | UAG (% of vehicle control) ([2]; 1 mg/kg oral BID 3 days): 204 ± 24 (n = 7) % of vehicle control | AG (% of control) ([2]; 3 mg/kg oral BID 3 days): 30 ± 4 (n = 7) % of control | AG/Total-ghrelin (% of vehicle control) ([2]; 3 mg/kg oral BID 3 days): 19 ± 1 (n = 7) % of vehicle control | UAG (% of vehicle control) ([2]; 3 mg/kg oral BID 3 days): 200 ± 20 (n = 7) % of vehicle control

Structure (SMILES): COC(=O)N[C@@H](C)C(=O)N1CCC(CCc2c(N)nc(C)nc2Cl)CC1 [Example 71, Methyl N-[(1S)-2-[4-[2-(4-amino-6-chloro-2-methyl-pyrimidin-5-yl)ethyl]-1-piperidyl]-1-methyl-2-oxo-ethyl]carbamate]
IC50 [1]: 149 ± 46 nM | decrease of plasma AG ([2]; 0.3 mg/kg): 13% | increase of UAG ([2]; 0.3 mg/kg): 2.87 fold | reduction in AG to total ghrelin ratio ([2]; 0.3 mg/kg): 59% | decrease of plasma AG ([2]; 1 mg/kg): 37% | increase of UAG ([2]; 1 mg/kg): 3.44 fold | reduction in AG to total ghrelin ratio ([2]; 1 mg/kg): 73% | decrease of plasma AG ([2]; 3 mg/kg): 66% | increase of UAG ([2]; 3 mg/kg): 2.90 fold | reduction in AG to total ghrelin ratio ([2]; 3 mg/kg): 82% | AG (% of control) ([2]; 0.3 mg/kg oral BID 3 days): 87 ± 18 (n = 7) % of control | AG/Total-ghrelin (% of vehicle control) ([2]; 0.3 mg/kg oral BID 3 days): 41 ± 3 (n = 7) % of vehicle control | UAG (% of vehicle control) ([2]; 0.3 mg/kg oral BID 3 days): 287 ± 43 (n = 7) % of vehicle control | AG (% of control) ([2]; 1 mg/kg oral BID 3 days): 63 ± 15 (n = 7) % of control | AG/Total-ghrelin (% of vehicle control) ([2]; 1 mg/kg oral BID 3 days): 27 ± 2 (n = 7) % of vehicle control | UAG (% of vehicle control) ([2]; 1 mg/kg oral BID 3 days): 344 ± 63 (n = 7) % of vehicle control | AG (% of control) ([2]; 3 mg/kg oral BID 3 days): 34 ± 5 (n = 7) % of control | AG/Total-ghrelin (% of vehicle control) ([2]; 3 mg/kg oral BID 3 days): 18 ± 1 (n = 7) % of vehicle control | UAG (% of vehicle control) ([2]; 3 mg/kg oral BID 3 days): 290 ± 30 (n = 7) % of vehicle control

The remaining compounds from weak to strong by IC50 [1], led by results:

IC50 [1]: 574 nM
Structure (SMILES): Cc1nc(N)c(CCC2CCCN(C(=O)[C@H](C)NC(=O)c3ccncc3)CC2)c(Cl)n1 (stereo partly drawn) [Example 37, N-[(1S)-2-[(4R,S)-4-[2-(4-Amino-6-chloro-2-methyl-pyrimidin-5-yl)ethyl]azepan-1-yl]-1-methyl-2-oxo-ethyl] pyridine-4-carboxamide]

IC50 [1]: 68.9 ± 23.6 nM | decrease of plasma AG ([2]; 0.2 mg/kg): 34% | increase of UAG ([2]; 0.2 mg/kg): 2.13 fold | reduction in AG to total ghrelin ratio ([2]; 0.2 mg/kg): 50% | decrease of plasma AG ([2]; 0.6 mg/kg): 52% | increase of UAG ([2]; 0.6 mg/kg): 2.61 fold | reduction in AG to total ghrelin ratio ([2]; 0.6 mg/kg): 65% | decrease of plasma AG ([2]; 2 mg/kg): 72% | increase of UAG ([2]; 2 mg/kg): 2.92 fold | reduction in AG to total ghrelin ratio ([2]; 2 mg/kg): 79% | decrease of plasma AG ([2]; 6 mg/kg): 79% | increase of UAG ([2]; 6 mg/kg): 3.02 fold | reduction in AG to total ghrelin ratio ([2]; 6 mg/kg): 84% | decrease of plasma AG ([2]; 18 mg/kg): 81% | increase of UAG ([2]; 18 mg/kg): 2.79 fold | reduction in AG to total ghrelin ratio ([2]; 18 mg/kg): 86% | AG (% of control) ([2]; 0.2 mg/kg oral BID 3 days): 66 ± 12 (n = 7) % of control | AG/Total-ghrelin (% of vehicle control) ([2]; 0.2 mg/kg oral BID 3 days): 50 ± 3 (n = 7) % of vehicle control | UAG (% of vehicle control) ([2]; 0.2 mg/kg oral BID 3 days): 213 ± 27 (n = 7) % of vehicle control | AG (% of control) ([2]; 0.6 mg/kg oral BID 3 days): 48 ± 4 (n = 7) % of control | AG/Total-ghrelin (% of vehicle control) ([2]; 0.6 mg/kg oral BID 3 days): 35 ± 1 (n = 7) % of vehicle control | UAG (% of vehicle control) ([2]; 0.6 mg/kg oral BID 3 days): 261 ± 30 (n = 7) % of vehicle control | AG (% of control) ([2]; 2 mg/kg oral BID 3 days): 28 ± 3 (n = 14) % of control | AG/Total-ghrelin (% of vehicle control) ([2]; 2 mg/kg oral BID 3 days): 21 ± 1 (n = 14) % of vehicle control | UAG (% of vehicle control) ([2]; 2 mg/kg oral BID 3 days): 292 ± 43 (n = 14) % of vehicle control | AG (% of control) ([2]; 6 mg/kg oral BID 3 days): 21 ± 3 (n = 7) % of control | AG/Total-ghrelin (% of vehicle control) ([2]; 6 mg/kg oral BID 3 days): 16 ± 1 (n = 7) % of vehicle control | UAG (% of vehicle control) ([2]; 6 mg/kg oral BID 3 days): 302 ± 48 (n = 7) % of vehicle control | AG (% of control) ([2]; 18 mg/kg oral BID 3 days): 19 ± 6 (n = 7) % of control | AG/Total-ghrelin (% of vehicle control) ([2]; 18 mg/kg oral BID 3 days): 14 ± 2 (n = 7) % of vehicle control | UAG (% of vehicle control) ([2]; 18 mg/kg oral BID 3 days): 279 ± 36 (n = 7) % of vehicle control
Structure (SMILES): Cc1nc(N)c(CCC2CCN(C(=O)[C@H](C)NC(=O)c3ccnn3C)CC2)c(Cl)n1 [Example 66, N-[(1S)-2-[4-[2-(4-Amino-6-chloro-2-methyl-pyrimidin-5-yl)ethyl]-1-piperidyl]-1-methyl-2-oxo-ethyl]-2-methyl-pyrazole-3-carboxamide]

IC50 [1]: 54.4 nM
Structure (SMILES): Cc1nc(Cl)nc(N)c1CCC1CCN(C(=O)[C@H](C)NC(=O)c2cn[nH]c2C)CC1 [Example 2, N-[(1S)-2-[4-[2-(4-Amino-2-chloro-6-methyl-pyrimidin-5-yl)ethyl]-1-piperidyl]-1-methyl-2-oxo-ethyl]-5-methyl-1H-pyrazole-4-carboxamide]

Reference: patent US10227310B2, “Ghrelin 0-acyl transferase inhibitors” (Eli Lilly and Company, priority 2015, dated 2019)
